Test in all cases: DTP human tumour cell line panel, 48 h
Assay [1] concerns HOP-92.
Assay [2] concerns COLO 205.
For assay [3], the system named is HCT-116.
For assay [4], the system named is SR.
Assay [5] has as its system NCI-H226.
Assay [6] concerns UACC-62.
Assay [7] relates to SK-MEL-2.
In assay [8] the test system is ACHN.
In assay [9] the test system is OVCAR-5.
In assay [10] the test system is SK-OV-3.
The subject of assay [11] is M14.
In assay [12] the test system is SW-620.
The test system of assay [13] is 786-0.
Assay [14] has as its system SN12C.
In assay [15] the test system is LOX IMVI.
The test system of assay [16] is MDA-N.
Assay [17] concerns SNB-75.
The subject of assay [18] is T47D.
For assay [19], the system named is UO-31.

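Following 48 hours of exposure in 96-well plates, responses at five concentrations were used to interpolate endpoints linearly. At the GI50, growth is halved.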 Active and inactive are the calls of the source. Rule as the data show it: active = GI50 up to about 1.1 µM and inactive = higher. A value given as a limit tells only on which side of the number the result lay.

Ten compounds from ChEMBL document CHEMBL1201862, “PubChem BioAssay data set” (2004) can be followed below.

Take `C=CCn1c(=O)c(C)cn(/C(=C/C(=O)OCC)C(=O)OCC)c1=O`: the GI50 in [1] is 3.52 µM (inactive); in assay [2], 4.55 µM (inactive); in assay [3], 9.62 µM (inactive); in [4] it was 5.33 µM (inactive); in assay [5], 31.6 µM (inactive); in assay [6] it was 16.5 µM (inactive). The GI50 was 23.2 µM (inactive) in assay [7]; 9.08 µM (inactive) in [8]; 16.4 µM (inactive) in [9]; 60 µM (inactive) in assay [10]; 13.7 µM (inactive) in assay [11]; 3.85 µM (inactive) in [12]. The GI50 in assay [13] was 5.87 µM (inactive); in assay [14] it was 14.2 µM (inactive); in assay [15] it was 6.28 µM (inactive); in assay [16], 13.9 µM (inactive); in [17], 11.1 µM (inactive); in assay [18], 11.9 µM (inactive). Also, in [19], the GI50 is 15.7 µM (inactive).

Consider `O=C(O)C1(CC(CCCN2CCCCC2)c2ccccc2)CCCC1` (stereo not drawn), for which the GI50 in assay [1], in assay [2], in assay [3], in assay [4], in assay [5] and in [6] was > 100 µM (inactive) throughout. The GI50 in [7], in [8], in assay [9], in assay [10], in assay [11] and in assay [12] was > 100 µM (inactive) throughout. The GI50 in assay [13], in [14], in assay [15], in assay [16], in assay [17] and in [18] was > 100 µM (inactive) throughout. For the same compound, the GI50 in [19] was > 100 µM (inactive).

Turning to `CO[P@@]1(=O)O[C@@H](c2ccccc2)[C@H](O)[C@]1(O)c1ccccc1`, the GI50 in [1], in [2], in [3], in assay [4], in assay [5] and in [6] was > 100 µM (inactive) each time. For the same compound, the GI50 in [7], in [8], in assay [10], in assay [11], in [12] and in assay [13] was > 100 µM (inactive) throughout. Moreover, the GI50 in assay [14], in assay [15], in assay [16], in assay [17], in [18] and in assay [19] was > 100 µM (inactive) throughout.

Turning to `C=C1C(=O)C2=C[C@H]1C[C@H](O)C(=O)[C@]1(C)CCCC(C)(C)[C@H]1C[C@H]2O`, the GI50 in assay [1] was 1.49 µM (inactive); in assay [2] it was 0.638 µM (active); in assay [3] it was 1.63 µM (inactive); in assay [4] it was 0.358 µM (active); in assay [5] it was 10.5 µM (inactive); in assay [6], 1.59 µM (inactive). For the same compound, the GI50 in [7] is 7.19 µM (inactive); in assay [8], 0.452 µM (active); in assay [9] it was 1.93 µM (inactive); in assay [10] it was 12.8 µM (inactive); in assay [11] it was 1.52 µM (inactive); in assay [12], 0.583 µM (active). Further, the GI50 in assay [13] is 0.959 µM (active); in [14], 1.77 µM (inactive); in assay [15], 0.916 µM (active); in [16] it was 1.93 µM (inactive); in assay [17] it was 5.58 µM (inactive); in [18], 1.11 µM (active). In addition, in assay [19], the GI50 is 2.06 µM (inactive).

With `COc1cccc(C2c3cc4c(cc3OC(NNc3ccccc3)C2C)OCO4)c1O` (stereo not drawn), the GI50 in assay [1] was 12.6 µM (inactive); in [2] it was 8.75 µM (inactive); in [3], 4.4 µM (inactive); in assay [4], 1.87 µM (inactive); in assay [5], 14.5 µM (inactive); in assay [6], 2.43 µM (inactive). Also, the GI50 in assay [7] was 8.55 µM (inactive); in assay [8] it was 1.5 µM (inactive); in assay [9], 9.38 µM (inactive); in assay [10], 21.9 µM (inactive); in [11], 2.92 µM (inactive); in assay [12], 11 µM (inactive). For the same compound, the GI50 in [13] was 2.88 µM (inactive); in [14] it was 11.2 µM (inactive); in [15], 12.7 µM (inactive); in [16] it was 2.14 µM (inactive); in assay [17] it was 6.61 µM (inactive); in assay [18], 6.15 µM (inactive). The GI50 in assay [19] was 3.32 µM (inactive).

Consider `C[C@]12CC[C@H]3[C@@H](CCC4=C[C@@H](N5CCCC5)CC[C@@]43C)[C@@H]1C/C(=C\c1ccncc1)[C@@H]2O`, for which the GI50 in [1] is 15.9 µM (inactive); in assay [2] it was 6.32 µM (inactive); in assay [3] it was 7.91 µM (inactive); in assay [4] it was 3.16 µM (inactive); in assay [5] it was 15.6 µM (inactive); in assay [6], 15.8 µM (inactive). In addition, the GI50 in assay [7] is 16.4 µM (inactive); in assay [8], 17 µM (inactive); in assay [9], 18 µM (inactive); in [10] it was 18 µM (inactive); in assay [11], 2.39 µM (inactive); in [12], 13.4 µM (inactive). Moreover, the GI50 in [13] was 2.86 µM (inactive); in assay [14], 14.1 µM (inactive); in assay [15], 8.57 µM (inactive); in assay [16], 11.4 µM (inactive); in assay [17], 14.3 µM (inactive); in assay [18], 16.4 µM (inactive). The GI50 in [19] was 4.92 µM (inactive).

On to `CN(C)CCNC(=O)c1c(O)ccc2c1c1c(n2CCc2ccccc2)C(=O)c2ccccc2C1=O`, for which the GI50 in assay [1] is 8.97 µM (inactive); in assay [2] it was 15.8 µM (inactive); in assay [3], 3.6 µM (inactive); in [4], 2.58 µM (inactive); in assay [5] it was 16.8 µM (inactive); in [6], 2.76 µM (inactive). The GI50 in [7] is 5.87 µM (inactive); in assay [8] it was 9.18 µM (inactive); in assay [9], 15.5 µM (inactive); in assay [10], 16.4 µM (inactive); in assay [11], 1.93 µM (inactive); in [12], 6.93 µM (inactive). The GI50 is 4.36 µM (inactive) in [13]; 6.56 µM (inactive) in [14]; 2.43 µM (inactive) in [15]; 2.25 µM (inactive) in [16]; 14.4 µM (inactive) in assay [17]; 3.66 µM (inactive) in assay [18]. For the same compound, the GI50 in assay [19] is 5.26 µM (inactive).

`O=C1c2ccccc2C(=O)c2sc(Nc3cc(Cl)ccc3Cl)nc21`: the GI50 in assay [1] is 15.1 µM (inactive); in assay [2], 16 µM (inactive); in assay [3], 3.3 µM (inactive); in [4], 2.52 µM (inactive); in [5], 17.6 µM (inactive); in [6], 2.49 µM (inactive). Further, the GI50 was 11.4 µM (inactive) in assay [7]; 5.3 µM (inactive) in [8]; 20.9 µM (inactive) in assay [9]; 16 µM (inactive) in assay [10]; 4.69 µM (inactive) in [11]; 2.94 µM (inactive) in [12]. Besides, the GI50 is 3.61 µM (inactive) in [13]; 2.08 µM (inactive) in assay [14]; 2.28 µM (inactive) in [15]; 1.82 µM (inactive) in assay [16]; 15.1 µM (inactive) in assay [17]; 3.99 µM (inactive) in [18]. Further, the GI50 in assay [19] is 6.03 µM (inactive).

Consider `COc1ccc(-c2c(C#N)c(=O)nc(SC)n2C2OCC(OC(C)=O)C(OC(C)=O)C2OC(C)=O)cc1` (stereo not drawn), for which the GI50 in assay [1] is > 100 µM (inactive); in assay [2], > 100 µM (inactive); in assay [3] it was 31.6 µM (inactive); in assay [4], 5.11 µM (inactive); in assay [5], > 100 µM (inactive); in assay [6] it was 33.5 µM (inactive). The GI50 in assay [7] is > 100 µM (inactive); in assay [8] it was 75 µM (inactive); in assay [9], > 100 µM (inactive); in assay [10] it was > 100 µM (inactive); in assay [11], > 100 µM (inactive); in assay [12] it was 64.3 µM (inactive). Also, the GI50 was > 100 µM (inactive) in assay [13]; > 100 µM (inactive) in assay [14]; 64.1 µM (inactive) in assay [15]; 83.4 µM (inactive) in assay [16]; 95.9 µM (inactive) in assay [17]; 63.4 µM (inactive) in assay [18]. For the same compound, the GI50 in [19] was 38.6 µM (inactive).

With `C=CCn1c(N)c(C#N)c(C#N)c1CCC`, the GI50 in assay [1] was > 100 µM (inactive); in assay [2], > 100 µM (inactive); in assay [4], 22.5 µM (inactive); in assay [5] it was > 100 µM (inactive); in assay [6], > 100 µM (inactive); in [7], > 100 µM (inactive). In addition, the GI50 in [8], in [9], in [10], in assay [11], in assay [12] and in [13] was > 100 µM (inactive) in each case. The GI50 in [14] was > 100 µM (inactive); in assay [15], > 100 µM (inactive); in assay [16] it was > 100 µM (inactive); in assay [17], 25 µM (inactive); in [18] it was > 100 µM (inactive); in assay [19] it was > 100 µM (inactive).
